# From patent publication US20150132382A1, “COMPOSITIONS AND METHODS OF TREATMENT COMPRISING FOSFOMYCIN DISODIUM” (Forest Laboratories Holdings Ltd., priority 2013, published 2015)
# Experiments:
# [1] = Microenvironmental pH of fosfomycin sodium, with and without organic acid; format: physicochemical
# Excerpt: Fosfomycin may be granulated by using methods such as slugging, low or high shear granulation or fluid bed granulation. For example, for high shear granulation (e.g., Diosna Mixer Granulator), fosfomycin can be blended with a water soluble filler (e.g., lactose, sucrose, mannitol and sorbitol) and granulated with binder (sugars like sucrose and liquid glucose; natural binders like starch and pre-gelatinized starch; synthetic/semisynthetic polymers like HPMC, povidone, PEG, polyvinyl alcohol) solution. The granules are dried, milled and blended with an organic acid (e.g., citric acid, tartaric acid, succinic acid, malic acid, fumaric acid), anti-adherent (e.g., talc, fumed silica) and lubricant (sodium stearyl fumarate). The organic acid serves as a neutralizer counteracting microenvironmental high alkalinity resulting from fosfomycin sodium. Fosfomycin sodium microenvironmental pH of about 9 would be reduced to pH 6-8 due to the presence of an organic acid. The final blend is compressed into tablets (1.4-1.7 g/tablet) followed by film coating (e.g., Opadry) in a conventional coating pan. These formulations can provide≧80% fosfomycin dissolution in less than 30 minutes at pH 1.2.
# [2] = Borsa et al 1988; cited from earlier work
# [3] = cited from earlier work
# [4] = compared with the other fosfomycin salt (Bergan 1990); cited from earlier work
structure (smiles),measurement,setting,value
"C[C@@H]1O[C@@H]1P(=O)(O)O [Fosfomycin disodium, fosfomycin disodium]",microenvironmental pH,[1],about 9
same,gastric irritation,[2],known to cause gastric irritation
C[C@@H]1O[C@@H]1P(=O)([O-])[O-].[Ca+2] [fosfomycin calcium],solubility in water,[3],slightly soluble in water
same,bioavailability,[4],lower bioavailability
